From US20230139171A1 (SITA Information Networking Computing UK Limited, priority 2019, published 2023)

Assays:
Assay type in all cases: cell-based
[1] = target: T1, human TLR7 (Homo sapiens, UniProt Q9NYK1); assay: TLR7 inhibition reporter assay (HEK-Blue cells, SEAP reporter, gardiquimod stimulation); conditions: HEK-Blue cells overexpressing human TLR7, SEAP reporter, gardiquimod 7.5 μM; read-out: TLR7 IC50
T1 construct: host or cells: HEK-Blue cells
T1 sequence (Q9NYK1 27-1049): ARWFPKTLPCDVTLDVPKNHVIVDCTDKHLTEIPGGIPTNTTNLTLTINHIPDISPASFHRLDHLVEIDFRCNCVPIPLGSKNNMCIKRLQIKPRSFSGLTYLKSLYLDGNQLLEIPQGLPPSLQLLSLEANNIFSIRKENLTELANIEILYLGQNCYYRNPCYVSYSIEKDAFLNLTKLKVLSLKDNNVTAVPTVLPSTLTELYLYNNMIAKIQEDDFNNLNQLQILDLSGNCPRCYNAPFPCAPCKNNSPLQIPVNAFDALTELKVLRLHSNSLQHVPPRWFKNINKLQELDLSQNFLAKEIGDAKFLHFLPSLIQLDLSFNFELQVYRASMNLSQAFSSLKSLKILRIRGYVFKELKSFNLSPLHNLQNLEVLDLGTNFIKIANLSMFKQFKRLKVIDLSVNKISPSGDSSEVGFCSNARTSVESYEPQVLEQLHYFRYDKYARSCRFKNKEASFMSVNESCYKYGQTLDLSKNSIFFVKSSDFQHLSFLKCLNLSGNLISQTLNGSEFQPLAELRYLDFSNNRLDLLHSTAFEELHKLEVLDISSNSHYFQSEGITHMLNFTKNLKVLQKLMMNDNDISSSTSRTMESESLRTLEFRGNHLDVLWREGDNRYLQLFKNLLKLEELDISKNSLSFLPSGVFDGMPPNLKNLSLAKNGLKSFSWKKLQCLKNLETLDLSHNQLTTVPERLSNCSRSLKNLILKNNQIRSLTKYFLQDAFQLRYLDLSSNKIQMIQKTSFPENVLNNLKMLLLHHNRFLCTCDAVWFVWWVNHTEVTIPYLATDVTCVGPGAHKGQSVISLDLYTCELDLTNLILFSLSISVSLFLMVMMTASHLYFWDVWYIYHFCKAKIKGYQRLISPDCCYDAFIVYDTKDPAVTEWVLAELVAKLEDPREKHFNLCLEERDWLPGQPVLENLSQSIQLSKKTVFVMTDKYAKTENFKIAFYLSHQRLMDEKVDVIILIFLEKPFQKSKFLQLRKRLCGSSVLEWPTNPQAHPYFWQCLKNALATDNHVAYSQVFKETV
In short: (§1)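 Human TLR7/8/9 HEK-Blue reporter lines; dose range 0.05 nM–50 μM; 30 min RT preincubation; stimulus gardiquimod 7.5 μM / R848 15.9 μM / ODN2006 5 nM respectively; 22 h, 37 °C; SEAP detected colorimetrically.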

[2] = target: T2, human TLR8 (Homo sapiens, UniProt Q9NR97); assay: TLR8 inhibition reporter assay (HEK-Blue cells, SEAP reporter, R848 stimulation); conditions: HEK-Blue cells overexpressing human TLR8, SEAP reporter, R848 15.9 μM; read-out: TLR8 IC50
T2 construct: host or cells: HEK-Blue cells
T2 sequence (Q9NR97 27-1041): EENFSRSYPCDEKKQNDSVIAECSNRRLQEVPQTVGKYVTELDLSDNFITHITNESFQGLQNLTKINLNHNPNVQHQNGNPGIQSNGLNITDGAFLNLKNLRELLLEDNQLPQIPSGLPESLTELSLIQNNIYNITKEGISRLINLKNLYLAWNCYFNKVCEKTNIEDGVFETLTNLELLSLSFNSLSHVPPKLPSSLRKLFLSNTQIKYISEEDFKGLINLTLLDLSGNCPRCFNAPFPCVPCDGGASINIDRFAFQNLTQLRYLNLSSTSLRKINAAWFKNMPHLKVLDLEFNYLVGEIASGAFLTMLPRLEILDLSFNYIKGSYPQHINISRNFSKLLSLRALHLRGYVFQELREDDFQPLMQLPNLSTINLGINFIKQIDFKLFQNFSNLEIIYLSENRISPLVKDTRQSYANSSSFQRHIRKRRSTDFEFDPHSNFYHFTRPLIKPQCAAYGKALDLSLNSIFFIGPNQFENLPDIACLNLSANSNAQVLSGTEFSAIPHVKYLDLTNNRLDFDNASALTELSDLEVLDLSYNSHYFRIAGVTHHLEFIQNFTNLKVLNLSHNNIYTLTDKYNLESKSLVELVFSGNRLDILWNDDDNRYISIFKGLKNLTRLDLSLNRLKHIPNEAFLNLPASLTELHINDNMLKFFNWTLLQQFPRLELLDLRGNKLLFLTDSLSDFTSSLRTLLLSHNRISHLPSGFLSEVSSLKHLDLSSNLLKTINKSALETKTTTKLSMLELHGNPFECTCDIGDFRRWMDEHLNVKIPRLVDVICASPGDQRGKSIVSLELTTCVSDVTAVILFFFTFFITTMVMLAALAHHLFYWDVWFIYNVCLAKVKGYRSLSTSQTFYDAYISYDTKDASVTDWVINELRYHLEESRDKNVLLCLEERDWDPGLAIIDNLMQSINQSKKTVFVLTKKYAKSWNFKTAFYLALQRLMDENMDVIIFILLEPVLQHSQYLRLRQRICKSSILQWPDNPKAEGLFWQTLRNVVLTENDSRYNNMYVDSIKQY
In short: as §1

[3] = target: T3, human TLR9 (Homo sapiens, UniProt Q9NR96); assay: TLR9 inhibition reporter assay (HEK-Blue cells, SEAP reporter, ODN2006 stimulation); conditions: HEK-Blue cells overexpressing human TLR9, SEAP reporter, ODN2006 5 nM
T3 construct: host or cells: HEK-Blue cells
T3 sequence (Q9NR96 26-1032): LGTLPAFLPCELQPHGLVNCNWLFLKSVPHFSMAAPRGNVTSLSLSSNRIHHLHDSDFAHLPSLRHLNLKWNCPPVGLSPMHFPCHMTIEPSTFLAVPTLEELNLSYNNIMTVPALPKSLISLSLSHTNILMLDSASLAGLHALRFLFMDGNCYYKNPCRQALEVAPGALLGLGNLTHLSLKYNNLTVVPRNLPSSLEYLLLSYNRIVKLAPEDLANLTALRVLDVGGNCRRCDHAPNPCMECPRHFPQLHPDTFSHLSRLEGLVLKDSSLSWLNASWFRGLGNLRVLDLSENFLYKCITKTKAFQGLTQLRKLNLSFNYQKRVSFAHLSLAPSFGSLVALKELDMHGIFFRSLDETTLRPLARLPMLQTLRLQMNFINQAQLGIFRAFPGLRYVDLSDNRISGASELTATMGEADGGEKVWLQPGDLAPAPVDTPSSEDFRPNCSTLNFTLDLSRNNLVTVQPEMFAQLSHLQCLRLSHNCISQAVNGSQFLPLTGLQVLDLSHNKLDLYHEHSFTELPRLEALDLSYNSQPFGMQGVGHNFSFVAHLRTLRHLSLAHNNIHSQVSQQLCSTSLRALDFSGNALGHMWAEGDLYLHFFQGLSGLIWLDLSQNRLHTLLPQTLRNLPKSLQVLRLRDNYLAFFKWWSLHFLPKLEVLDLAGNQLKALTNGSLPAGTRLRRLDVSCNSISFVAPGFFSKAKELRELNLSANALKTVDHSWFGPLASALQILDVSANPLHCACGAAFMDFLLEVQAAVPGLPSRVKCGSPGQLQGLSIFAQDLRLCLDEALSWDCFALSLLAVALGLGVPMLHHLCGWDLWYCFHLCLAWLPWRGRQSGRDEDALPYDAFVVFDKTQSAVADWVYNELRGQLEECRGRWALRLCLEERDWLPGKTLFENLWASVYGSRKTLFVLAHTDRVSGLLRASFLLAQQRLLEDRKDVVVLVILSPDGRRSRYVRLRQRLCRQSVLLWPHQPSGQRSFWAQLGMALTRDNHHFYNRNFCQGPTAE
In short: as §1

Structure (SMILES) | IC50 [1] [nM] | IC50 [2] [nM] | IC50 [3] [nM]
Cc1cc2ncnn2cc1-c1[nH]c2sc(C3CCC(N(C)C(C)C)CC3)nc2c1C(C)C (single isomer, unassigned) [Example 158, N-isopropyl-4-(6-isopropyl-5-(7-methyl-[1,2,4]triazolo[1,5-a]pyridin-6-yl)-4H-pyrrolo[3,2-d]thiazol-2-yl)-N-methylcyclohexan-1-amine] | 8.95 | 31 | 14300
Cc1cc2ncnn2cc1-c1[nH]c2sc(C3CCC(N(C)C(C)C)CC3)nc2c1C(C)C (single isomer, unassigned) [Example 159, N-isopropyl-4-(6-isopropyl-5-(7-methyl-[1,2,4]triazolo[1,5-a]pyridin-6-yl)-4H-pyrrolo[3,2-d]thiazol-2-yl)-N-methylcyclohexan-1-amine] | 8.79 | 4.78 | 6870
Cc1cc2ncnn2cc1-c1[nH]c2sc(C3CCC(NC4CCOCC4)CC3)nc2c1C(C)C (single isomer, unassigned) [Example 160, N-(4-(6-isopropyl-5-(7-methyl-[1,2,4]triazolo[1,5-a]pyridin-6-yl)-4H-pyrrolo[3,2-d]thiazol-2-yl)cyclohexyl) tetrahydro-2H-pyran-4-amine] | 0.61 | 0.06 | 5300
Cc1cc2ncnn2cc1-c1[nH]c2sc(C3CCC(NC4CCOCC4)CC3)nc2c1C(C)C (single isomer, unassigned) [Example 161, N-(4-(6-isopropyl-5-(7-methyl-[1,2,4]triazolo[1,5-a]pyridin-6-yl)-4H-pyrrolo[3,2-d]thiazol-2-yl)cyclohexyl) tetrahydro-2H-pyran-4-amine] | 18.1 | 14.7 | 17000
COc1cc(-c2[nH]c3sc(C4CCC(N(C)CC(=O)N(C)C)CC4)nc3c2C(C)C)cn2ncnc12 (single isomer, unassigned) [Example 162, 2-((4-(6-isopropyl-5-(8-methoxy-[1,2,4]triazolo[1,5-a]pyridin-6-yl)-4H-pyrrolo[3,2-d]thiazol-2-yl)cyclohexyl)(methyl)amino)-N,N-dimethylacetamide] | 2.6 | 15.7 | 20300
COc1cc(-c2[nH]c3sc(C4CCC(N(C)CC(=O)N(C)C)CC4)nc3c2C(C)C)cn2ncnc12 (single isomer, unassigned) [Example 163, 2-((4-(6-isopropyl-5-(8-methoxy-[1,2,4]triazolo[1,5-a]pyridin-6-yl)-4H-pyrrolo[3,2-d]thiazol-2-yl)cyclohexyl)(methyl)amino)-N,N-dimethylacetamide] | 1.59 | 20.6 | 9400
COc1cc(-c2[nH]c3sc(C4CCC(N(C)CCS(C)(=O)=O)CC4)nc3c2C(C)C)cn2ncnc12 (single isomer, unassigned) [Example 164, 4-(6-isopropyl-5-(8-methoxy-[1,2,4]triazolo[1,5-a]pyridin-6-yl)-4H-pyrrolo[3,2-d]thiazol-2-yl)-N-methyl-N-(2-(methylsulfonyl)ethyl) cyclohexan-1-amine] | 1.32 | 4.43 | 15600
COc1cc(-c2[nH]c3sc(C4CCC(N(C)CCS(C)(=O)=O)CC4)nc3c2C(C)C)cn2ncnc12 (single isomer, unassigned) [Example 165, 4-(6-isopropyl-5-(8-methoxy-[1,2,4]triazolo[1,5-a]pyridin-6-yl)-4H-pyrrolo[3,2-d]thiazol-2-yl)-N-methyl-N-(2-(methylsulfonyl)ethyl) cyclohexan-1-amine] | 1.61 | 14.4 | 22800
COc1cc(-c2[nH]c3sc(C4CCC(NC5CCN(C(C)C)CC5)CC4)nc3c2C(C)C)cn2ncnc12 (single isomer, unassigned) [Example 166, 1-isopropyl-N-(4-(6-isopropyl-5-(8-methoxy-[1,2,4]triazolo[1,5-a]pyridin-6-yl)-4H-pyrrolo[3,2-d]thiazol-2-yl)cyclohexyl)piperidin-4-amine] | 0.88 | 0.87 | 383
COc1cc(-c2[nH]c3sc(C4CCC(NC5CCN(C(C)C)CC5)CC4)nc3c2C(C)C)cn2ncnc12 (single isomer, unassigned) [Example 167, 1-isopropyl-N-(4-(6-isopropyl-5-(8-methoxy-[1,2,4]triazolo[1,5-a]pyridin-6-yl)-4H-pyrrolo[3,2-d]thiazol-2-yl)cyclohexyl)piperidin-4-amine] | 7.37 | 34.8 | 1710
COc1cc(-c2[nH]c3sc(C4CCC(NC56CC(C5)C6)CC4)nc3c2C(C)C)cn2ncnc12 (single isomer, unassigned) [Example 168, N-(4-(6-isopropyl-5-(8-methoxy-[1,2,4]triazolo[1,5-a]pyridin-6-yl)-4H-pyrrolo[3,2-d]thiazol-2-yl)cyclohexyl)bicyclo[1.1.1]pentan-1-amine] | 6.58 | 33.9 | > 50000
